Results published in US20070172843A1, “MEK interacting protein 1 as diagnostic and therapeutic target for breast cancer treatment and prevention” (priority 2005, published 2007).
Blank lines part the entries; values can stand above or below the molecule they belong to.

Columns and labels:
Flag-ER = assay: Inducible 3' Flag-ER expression (ARGENT system) in stably transfected MCF-7 derivative, Western blotting; format: cell-based, human; settings: treated six hours, Western blot, FIG. 2
From the text: To tightly regulate expression of the Flag-ER gene, the Ariad “ARGENT” inducible gene expression system (25) (www.ariad.com) was used. This system allows for tight and specific regulation of a target gene.
To identify physiologically relevant ER-interacting proteins, the MCF-7 cell line was used. […] First, a stable derivative of MCF-7 in which target genes can be inducibly expressed was constructed. The construction of this cell line and an example of its use have been previously described (27). Next, the 5′ and 3′ Flag-ER constructs were subcloned into the target vector, and these constructs were stably transfected into the MCF-7 derivative described above. […] Stable transfectants containing either 3′ Flag-ER or empty vector were treated as indicated (in FIG. 2) for six hours, and lysates were analyzed by Western blotting (WB) with antibodies to ER, Flag, or Actin.

ER = molecular target: T1, ER (Homo sapiens, UniProt P03372); settings: MCF-7 cells, 24 h in medium lacking E2, ligand for 3 h; MP1 vs empty vector; FIG. 5
T1 sequence (P03372 1-595): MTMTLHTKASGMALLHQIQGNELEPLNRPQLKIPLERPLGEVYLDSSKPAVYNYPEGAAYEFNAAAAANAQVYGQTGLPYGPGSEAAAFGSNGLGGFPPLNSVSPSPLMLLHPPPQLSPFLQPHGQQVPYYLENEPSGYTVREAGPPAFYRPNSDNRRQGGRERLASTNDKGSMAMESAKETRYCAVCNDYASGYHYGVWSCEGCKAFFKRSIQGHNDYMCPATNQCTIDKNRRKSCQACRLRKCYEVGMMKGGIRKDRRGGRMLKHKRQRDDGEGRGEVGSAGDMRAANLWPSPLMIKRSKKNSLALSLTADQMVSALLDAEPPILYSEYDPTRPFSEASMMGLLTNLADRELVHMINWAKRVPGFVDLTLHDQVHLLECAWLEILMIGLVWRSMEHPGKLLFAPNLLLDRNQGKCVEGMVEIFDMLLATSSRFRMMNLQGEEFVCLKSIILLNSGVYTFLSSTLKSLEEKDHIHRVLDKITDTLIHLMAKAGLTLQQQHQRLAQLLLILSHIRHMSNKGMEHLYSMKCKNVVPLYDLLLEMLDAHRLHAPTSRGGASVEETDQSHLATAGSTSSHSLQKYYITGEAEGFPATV

ER/MP1 complex = molecular target: T2, ER/MP1 complex (Homo sapiens, UniProt P03372); settings: MCF-7 cells pre-treated in absence of E2, then ligand for 2 h; IP with ER or MP1 antibody; FIG. 4
T2 sequence (P03372 1-595): T1 sequence (P03372 1-595)
Procedure: One limitation to inducible expression systems is that proteins are expressed at very high levels, and complexes may form that are not physiologically relevant. […] Cell lysates were prepared and precipitated with either 0-ER (Labvision/NeoMarker) or 0-MP1 (Santa Cruz) antibody and protein G agarose beads.

MCF-7 cells = assay: BrdU incorporation proliferation assay in MCF-7 cells transfected with MP1 expression vector or empty vector; format: cell-based, human; settings: ligand for 48 h, BrdU for the final 5 h, FIG. 6
Procedure: The ER has both genomic and non-genomic activities, and its activity in transcription assays may not fully represent its ability to regulate cell proliferation. […] To label proliferating cells, BrdU (which is incorporated into DNA during DNA synthesis) was added to the cultures for the final 5 h of incubation. Cells were then fixed, labeled with a fluorescent anti-BrdU antibody, and the percentage of cells that incorporated BrdU (ie, were proliferating) was determined.

Structure (SMILES): CO[C@H]1[C@@H](O)[C@H](C)C[C@H](C)/C=C/C=C/C=C(\C)[C@@H](c2c[nH]c3c(C)cccc23)C[C@@H]2CC[C@@H](C)[C@@](O)(O2)C(=O)C(=O)N2CCCC[C@H]2C(=O)O[C@H]([C@H](C)C[C@@H]2CC[C@@H](O)[C@H](OC)C2)C[C@H](O)[C@H](C)/C=C(\C)[C@H]1O [AP21967]
- Flag-ER expression from the transfected gene (Flag-ER; cells containing 3' Flag-ER): highly induced
- endogenous ER expression (Flag-ER; vector containing cells): did not alter this expression

- effect of MP1 co-transfection on ER activity (ERE-Luc) in the presence of ligand (ER): not
- co-precipitation of MP1 with ER (ER/MP1 complex formation) (ER/MP1 complex): not
Structure (SMILES): C[C@]12CC[C@@H]3c4ccc(O)cc4C[C@@H](CCCCCCCCC[S+]([O-])CCCC(F)(F)C(F)(F)F)[C@H]3[C@@H]1CC[C@@H]2O (some centres unmarked) [ICI, ICI 182,780]

Structure (SMILES): CC/C(=C(\c1ccccc1)c1ccc(OCCN(C)C)cc1)c1ccccc1 [Tam, tamoxifen]
- effect of MP1 overexpression on proliferation (percentage of cells that incorporated BrdU) in the presence of ligand (MCF-7 cells): dramatically increases proliferation
